# In patent publication US10160948B2, “Pluripotent embryonic-like stem cells, compositions, methods and uses thereof” (ABT HOLDING COMPANY, priority 1999, dated 2018):
# What was measured:
# pluripotent stem cells = assay: Proliferation and phenotypic responses to bioactive factors: pluripotent cells; format: cell-based
# From the text: Having access to mixed populations of progenitor stem cells, progenitor stem cell clones, and pluripotent stem cell clones permits one to address the influence of various bioactive factors (e.g. recombinant growth factors, purified compounds, and novel inductive factors) on the growth characteristics and phenotypic expression of these stem cells.
# Cryopreserved cells are thawed and plated in MSC-1 at 5, 10, or 20×10^3 cells per well of gelatinized 24-well plates following the standard protocol. Twenty-four hours after initial plating the medium is changed to testing medium (TM) 1 to 6 (TM-1, TM-2, TM-3, TM-4, TM-5, or TM-6). TM-1 to TM-4 consist of Ultraculture (cat. no. 12-725B, lot. nos. OMO455 [TM-1], 1M1724 [TM-2], 2M0420 [TM-3], or 2M0274 [TM-4], Bio-Whittaker, Walkersville, Md.), medium (EMEM or Opti-MEM 0.01 mM β-mercaptoethanol), and 1% (v/v) antibiotic-antimycotic, pH 7.4. TM-5 consists of 98% (v/v) medium, 1% (v/v) HS, and 1% (v/v) antibiotic-antimycotic, pH 7.4. TM-6 consists of 98.5% (v/v) medium, 0.5% (v/v) HS, and 1% (v/v) antibiotic-antimycotic, pH 7.4. […] Four testing media (TM#'s 1-4), each containing various concentrations of Ultraculture, were used as. […] The four Ultraculture-based testing media were: TM-1=15% (v/v) Ultraculture (Lot no. OMO455): 84% (v/v) medium: 1% (v/v) antibiotics; TM-2=15% (v/v) Ultraculture (Lot no. 1M1724): 84% (v/v) medium: 1% (v/v) antibiotics; TM-3=50% (v/v) Ultraculture (Lot no. 2M0420): 49% (v/v) medium: 1% (v/v) antibiotics; and TM-4=75% (v/v) Ultraculture (Lot no. 2M0274): 24% (v/v) medium: 1% (v/v) antibiotics. Pre-incubation for 24 hr in testing medium alone is used to wash out any potential synergistic components in the MSC-1 medium. Twenty-four hours later the testing medium is changed to one of the following. For controls, TM-1 to TM-6 alone is used. To identify clones of progenitor cells, the medium is replaced with TM-1 to TM-6 containing 2 μg/ml insulin (Sigma), an agent that accelerates the appearance of phenotypic expression markers in progenitor cells (TABLE 12). To identify clones of pluripotent cells, the medium is replaced with TM-1 to TM-6 containing 10^−10 to 10^−6 M dexamethasone (Sigma), a general non-specific lineage-inductive agent (TABLE 13). Control and treated cultures are propagated for an additional 30-45 days with medium changes every other day. Four culture wells are used per concentration per experiment. During the 0-45 day time period the cultures are examined subjectively for changes in morphological characteristics on a daily basis. Alterations in phenotypic expression are correlated with the days of treatment and associated insulin or dexamethasone concentrations. The experiment is then repeated utilizing these parameters to confirm objectively the phenotypic expression markers using established histological, functional/histochemical, ELICA/flow cytometry, and molecular assays (TABLE 13).
# [1] = tested on: human mesenchymal stem cells; assay: Insulin/dexamethasone analysis to identify progenitor and pluripotent cells (morphology); format: cell-based
# Description: Aliquots of CM-SkM, CF-SkM, NHDF, PAL#3, and PAL#2 cells were thawed and plated individually at 10,000 cells per well in 1% gelatin-coated 24-well plates [Corning, Corning, N.Y.] utilizing PM-B. After 24 hr PM-B was removed and replaced with either control medium, insulin testing medium, or dexamethasone testing medium. Control medium consisted of 98% (v/v) Opti-MEM containing 0.01 mM β-mercapto-ethanol, 1% (v/v) HS3, and 1% antibiotic-antimycotic solution. Insulin testing medium consisted of control medium containing 2 μg/ml insulin [Sigma]. Dexmethasone testing medium was composed of 98% Opti-MEM, 0.01 mM β-mercaptoethanol, 1% serum [HS3, HS9 (horse serum, lot number 90H-0701, Sigma) or FBS (fetal bovine serum, lot no. 3000L, Atlanta Biologicals, Norcross, Ga.)] and 1% antibiotic-antimycotic solution. […]
# Discernible changes in phenotypic expression of the cells were assayed morphologically. These morphological tissue cellular types were identical to those previously noted in avian and mouse mesenchymal stem cells incubated with insulin or dexamethasone and extensively analyzed by histochemical and immunochemical procedures (Young et al., 1995; Rogers et al., 1995; Young et al., 1993; Young, 1999; Young et al., 1998). […]
# Discernible changes in phenotypic expression of the putative mesenchymal stem cells were determined using morphological criteria. […]
substance,measurement,setting,value
insulin,"Proliferation, Pluripotent: number of times the agent increased the DNA content per well versus its respective control",pluripotent stem cells,1 times
same,"activity on pluripotent and progenitor stem cells, in words",pluripotent stem cells; pluripotent and progenitor cells,"stimulated lineage-progression in all progenitor cells, but had no measurable effect on pluripotent cells"
same,"Phenotypic Expression, Pluripotent",pluripotent stem cells; presence and approximate distribution of differentiated phenotypes within the culture wells,0
same,effect on phenotypic expression at 80 cell doublings,[1],had no effect on the cells
